# Measurements taken from PubChem BioAssay (NCI).
#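 All cell lines were grown in 96-well plates and treated with compound for 48 hours. Here, GI50 denotes the concentration required for 50% inhibition of growth. TGI: total growth inhibition.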
# Columns and labels:
# Experiment in all cases: NCI-60 cell line screen, 48 h
# [1] = system: BT-549 breast
# [2] = system: LOX IMVI melanoma
# [3] = system: NCI-H460 lung
# [4] = system: SK-OV-3 ovarian
# [5] = system: T-47D breast
# [6] = system: U251 CNS
# [7] = system: HCC-2998 colon
# [8] = system: IGROV1 ovarian
# [9] = system: OVCAR-8 ovarian
# [10] = system: SF-268 CNS
SMILES,TGI [1],TGI [2],TGI [3],TGI [4],TGI [5],TGI [6],TGI [7],TGI [8],TGI [9],TGI [10],GI50 [1],GI50 [7],GI50 [8],GI50 [2],GI50 [3],GI50 [9],GI50 [10],GI50 [4],GI50 [6],GI50 [5]
O=C(O)C1C2CCC(O2)C1C(=O)NCc1cccnc1 (stereo unspecified),> 100 µM,> 100 µM,> 100 µM,> 100 µM,> 100 µM,> 100 µM,–,–,–,–,–,–,–,–,–,–,–,–,–,–
COC(=O)c1cc2c(nc1C)-c1ccccc1OS2(=O)=O,–,> 100 µM,> 100 µM,> 100 µM,–,> 100 µM,> 100 µM,> 100 µM,> 100 µM,> 100 µM,–,–,–,–,–,–,–,–,–,–
O=C(O)c1c[nH]c2c(ccc3[nH]cc(C(=O)O)c(=O)c32)c1=O,> 100 µM,> 100 µM,> 100 µM,> 100 µM,> 100 µM,> 100 µM,–,> 100 µM,> 100 µM,> 100 µM,–,–,–,–,–,–,–,–,–,–
ClCc1ccc(-c2ccc(Cn3cnc4c(Cl)ncnc43)cc2)cc1,> 100 µM,3.01 µM,2.65 µM,6.14 µM,–,3.95 µM,2.89 µM,57.2 µM,8.95 µM,3.51 µM,3.11 µM,1.44 µM,3.59 µM,1.33 µM,0.486 µM,2.8 µM,1.13 µM,1.98 µM,1.81 µM,–
C=CCCCC(O)c1ccc(C(O)c2cnc3ccccc3c2)o1 (stereo unspecified),63.5 µM,33.8 µM,> 100 µM,> 100 µM,> 100 µM,> 100 µM,51.4 µM,–,72 µM,> 100 µM,19.7 µM,19 µM,–,17.1 µM,26.9 µM,26.7 µM,32.5 µM,> 100 µM,29.9 µM,> 100 µM
CCOC(=O)Nc1cc(-c2ccc(C)c(NS(C)(=O)=O)c2)nn2c(C)nnc12,> 100 µM,–,> 100 µM,5.66 µM,17 µM,–,3.37 µM,8.17 µM,> 100 µM,> 100 µM,5.35 µM,1.59 µM,1.57 µM,–,2.04 µM,2.04 µM,4.13 µM,1.21 µM,–,1.47 µM
COC(=O)Cc1nn2c(nc1=O)sc1ccc3ccccc3c12,–,> 100 µM,> 100 µM,> 100 µM,–,74.1 µM,> 100 µM,> 100 µM,> 100 µM,–,–,–,–,–,–,–,–,–,–,–
NC(CSC1(c2ccc(Cl)cc2)c2ccccc2-c2ccccc21)C(=O)O (stereo unspecified),34.6 µM,30.3 µM,39.5 µM,> 100 µM,> 100 µM,29.6 µM,–,29.4 µM,38.7 µM,50.2 µM,–,–,–,–,–,–,–,–,–,–
C=C1CCC2(C(C)=O)COC1(C)O2 (stereo unspecified),–,> 100 µM,> 100 µM,> 100 µM,–,> 100 µM,–,> 100 µM,> 100 µM,–,–,–,–,–,–,–,–,–,–,–
COc1cc(-c2ccc(=O)oc2C#Cc2ccccc2)cc(OC)c1OC,63.4 µM,> 100 µM,> 100 µM,92.9 µM,> 100 µM,34.4 µM,> 100 µM,–,> 100 µM,> 100 µM,19.2 µM,> 100 µM,–,1.57 µM,> 100 µM,52.5 µM,12.7 µM,28.5 µM,8.09 µM,45.2 µM
O=C1CCCCCCCCCCOC(=O)CCCCCCCCCCO1,–,> 100 µM,> 100 µM,> 100 µM,–,> 100 µM,> 100 µM,> 100 µM,> 100 µM,> 100 µM,–,–,–,–,–,–,–,–,–,–
CN(CCCCN)c1ccc2c(=O)[nH][nH]c(=O)c2c1,–,> 100 µM,> 100 µM,> 100 µM,–,> 100 µM,> 100 µM,> 73.6 µM,–,> 100 µM,–,–,–,–,–,–,–,–,–,–
CCOC(=O)CP(=S)(S)c1ccccc1 (stereo unspecified),–,> 100 µM,> 100 µM,> 100 µM,–,> 100 µM,–,–,> 100 µM,> 100 µM,–,–,–,–,–,–,–,–,–,–
C1=CC(=NN=P(c2ccccc2)(c2ccccc2)c2ccccc2)C=C1,–,> 100 µM,> 100 µM,> 100 µM,–,–,> 100 µM,> 100 µM,> 100 µM,> 100 µM,–,–,–,–,–,–,–,–,–,–
O=C1c2ccccc2-c2ccccc2C1(Cl)Cl,3.14 µM,–,3.97 µM,3.08 µM,4.12 µM,1.07 µM,–,2.54 µM,1.26 µM,2.59 µM,1.72 µM,–,1.13 µM,0.314 µM,1.91 µM,0.334 µM,1.28 µM,1.7 µM,0.314 µM,1.6 µM
O=Cc1cn(S(=O)(=O)c2ccccc2)c2ccccc12,–,43.8 µM,> 100 µM,> 100 µM,–,> 100 µM,> 100 µM,> 100 µM,> 100 µM,> 100 µM,–,–,–,–,–,–,–,–,–,–
CC(O)c1ccc(C(O)/C(=N\NC(=O)c2ccncc2)c2nc3ccc([N+](=O)[O-])cc3[nH]c2=O)cc1 (stereo unspecified),–,> 100 µM,> 100 µM,> 100 µM,–,> 100 µM,> 100 µM,> 100 µM,> 100 µM,> 100 µM,–,–,–,–,–,–,–,–,–,–
CC(=O)Nc1ccc(Cc2ccc3[nH]c(=O)cc(C)c3c2)cc1,> 100 µM,> 100 µM,> 100 µM,> 100 µM,> 100 µM,> 100 µM,–,> 100 µM,> 100 µM,> 100 µM,–,–,–,–,–,–,–,–,–,–
O=[P+](O)c1cccnc1,–,> 100 µM,> 100 µM,> 100 µM,–,> 100 µM,> 100 µM,> 100 µM,> 100 µM,> 100 µM,–,–,–,–,–,–,–,–,–,–
C=CNC(=S)n1nc(-c2ccccc2NC(=O)C(F)(F)F)c(=O)n(C(=S)NC=C)c1=S,–,> 100 µM,47.3 µM,73 µM,–,> 100 µM,> 100 µM,> 100 µM,> 100 µM,46 µM,–,–,–,–,–,–,–,–,–,–
C1C[S][Ge]2([S]CCS1)[S]CCSCC[S]2,–,–,–,> 100 µM,–,–,> 100 µM,> 100 µM,–,> 100 µM,–,> 100 µM,> 100 µM,–,–,–,> 100 µM,> 100 µM,–,–
CCCCC1N=CNc2c1ccc1c2[nH]c2ccccc21 (stereo unspecified),–,–,4.22 µM,11.3 µM,3.2 µM,16.5 µM,3.01 µM,8.18 µM,–,29.4 µM,–,–,–,–,–,–,–,–,–,–
